Measured values from the METLIN SMRT retention time set (Domingo-Almenara et al. 2019).

Assay: gradient 5% acetonitrile 3 min, to 50% in 2 min, to 85% in 15 min, held 3 min, 100 µL/min
Details: column: Zorbax Extend-C18 2.1 x 50 mm; eluents: water / acetonitrile, 0.1% formic acid
How it was run: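 In both positive and negative ionization mode, a quadrupole time-of-flight mass spectrometer coupled to HPLC analyzed pure standards run in mixtures of ~100 molecules. The Zorbax Extend-C18 column (2.1 × 50 mm, 1.8 μm) was operated at 100 μL/min with water and acetonitrile, each containing 0.1% formic acid. The dead volume was 40 μL and the dwell volume 900 μL. Retention time came from adduct peaks that were computationally picked and individually inspected by hand.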

| SMILES | RP-LC retention time |
| --- | --- |
| CN(C)CCNC(=O)c1ccnc(-c2ccsc2)c1 | 573 s |
| O=c1cccnn1CCCNS(=O)(=O)c1ccc2c(c1)OCCO2 | 645 s |
| O=C(Nc1ccc(F)cc1)C1CCCN(C(=O)c2ccc(F)c(F)c2)C1 (stereo unspecified) | 860 s |
| Cc1nnc(-c2ccc3ccn(CC(=O)N4CCCCC4)c3c2)o1 | 748 s |
| COC(=O)CNC(=O)N1CCCC1c1cccc(C)c1 (stereo unspecified) | 734 s |
| COc1ccc(-c2noc(C3CCCN3C(=O)c3ccsc3)n2)cc1 (stereo unspecified) | 849 s |
| O=C1CCCN1CCCN1C(=O)[C@H]2CN(Cc3cccc(Cl)c3)C[C@H]2C1=O | 628 s |
| O=C(CCCN1CCN(Cc2ccc(F)cc2)C(=O)C1=O)NCc1ccc(F)cc1 | 721 s |
| Cc1nnc(-c2ccc3ccn(CC(=O)Nc4cccc(CN5CCCC5)c4)c3c2)o1 | 610 s |
| COc1cnc(NS(=O)(=O)c2ccc(N)cc2)nc1 | 675 s |
| CCC(C)NC(=O)Cn1cnc2nc(N3CCCC(C(=O)NC4CC4)C3)sc2c1=O (stereo unspecified) | 610 s |
| COC(=O)c1c(NC(=O)C2COc3ccccc3O2)sc2c1CCN(C(=O)OC)C2 (stereo unspecified) | 963 s |
| O=C(NCc1cccs1)c1nc(-c2ccnc(N3CCCCC3)c2)no1 | 742 s |
| CCNC(=O)c1n[nH]c2c1CN(C(=O)c1ccc3c(c1)OCO3)CC2 | 634 s |
| Cc1cccc(-c2nn3c(c2-c2ccnc4ccc(C(N)=O)cc24)CCC3)n1 | 612 s |
| O=C(COc1cccc(C(F)(F)F)c1)N1CCN(c2ccc(-c3ccco3)nn2)CC1 | 739 s |
| CCOC(=O)C1CCc2sc(NC(=O)Cc3sc(C)nc3C)nc21 (stereo unspecified) | 639 s |
| NC(=O)C1CCN(CC(=O)Nc2nc(-c3ccccc3)cs2)CC1 | 588 s |
| Cc1ccc(NC(=O)N2CCOCCNC(=O)[C@H]3CCCC[C@H]32)cc1C | 829 s |
| CCCN(CCC)S(=O)(=O)c1ccc(Br)c(OC)c1 | 1060 s |
| O=C(NCc1cccc(Br)c1)C1CCCN(c2ccc(=O)n(-c3ccc(F)cc3)n2)C1 (stereo unspecified) | 1050 s |
| O=C(c1ccncc1)N1CCCCC1c1nc(-c2ccc(F)cc2)no1 (stereo unspecified) | 673 s |
| Cn1cnc(S(=O)(=O)N2CCC(C(=O)Nc3cccc(Br)c3)CC2)c1 | 741 s |

| SMILES | RP-LC retention time |
| --- | --- |
| COc1ccc(N2C(=O)C3N=NN(Cc4nc(-c5ccc6c(c5)OCO6)no4)C3C2=O)cc1 (stereo unspecified) | 911 s |
| O=C(CC1CCCC1)N1CCN(c2nc(CN3CCCCC3)cs2)CC1 | 642 s |
| O=C(c1cc(C2CC2)[nH]n1)N1CC(F)(F)C[C@H]1c1nc(C2CC2)no1 | 794 s |
| CCn1cc2c(n1)c(=O)n(Cc1ccc(F)cc1)c(=O)n2CC(=O)Nc1cc(F)ccc1F | 905 s |
| CCS(=O)(=O)NCC1CCN(C(=O)COc2ccccc2)CC1 | 659 s |
| CCCCN(C)C(=O)c1sc(-c2cn(C(C)C)c3ncccc23)nc1C | 1010 s |
| O=C(Cn1ccc2ccc(N3CCOCC3)nc21)NCc1ccc2c(c1)OCO2 | 791 s |
| CCc1nc(-c2csc(S(=O)(=O)N3CCCC(C(=O)Nc4ccc(OC)cc4)C3)c2)no1 (stereo unspecified) | 917 s |
| CCCN(CCC)CCc1c[nH]c2ccc(C(N)=O)cc12 | 640 s |
| CN1CCN(c2nnc(SCC(=O)Nc3cccc(C(F)(F)F)c3)s2)CC1 | 560 s |
| CCCNc1cc(N2CCCC(CCC(=O)NCc3ccccn3)C2)ncn1 (stereo unspecified) | 550 s |
| FC(F)(F)c1cccc(-c2ccc(CNCC3CCCO3)o2)c1 (stereo unspecified) | 703 s |
| O=C1NCCCCCCN(C(=O)Nc2ccc3c(c2)OCCO3)[C@H]2CCCC[C@@H]12 | 808 s |
| O=C(Nc1ccc2c(c1)C(=O)N1CCCCC1CCO2)c1ccco1 (stereo unspecified) | 692 s |
| COC(=O)Nc1nc2ccc(Br)cc2[nH]1 | 642 s |
| O=C(Cc1ccc(Cl)cc1)NCC1CCN(C2CCCC2)CC1 | 566 s |
| Cc1ccc(CCNC(=O)c2cc3sccc3n2Cc2ccc(F)cc2)cc1 | 702 s |
| COc1cccc(NC(=O)N2CCC(CC(=O)N3CCCCC3)CC2)c1 | 718 s |
| Cn1c(=O)n(C)c2cc(Nc3cc(N4CCOCC4)ncn3)ccc21 | 566 s |
| O=C(Nc1ccc(OC(F)(F)F)cc1)C1CCN(C(=O)C2Sc3ccccc3NC2=O)CC1 (stereo unspecified) | 893 s |
| CC1CCN(CCCNC(=O)C2CCN(S(=O)(=O)c3ccc4c(c3)sc(=O)n4C)CC2)CC1 | 1060 s |
| CC(=O)Nc1ccc(-c2nc(-c3cccc(-c4ccnn4C)c3)no2)cc1 | 1140 s |

Next, values leading:

| RP-LC retention time | SMILES |
| --- | --- |
| 658 s | COC(=O)c1ncn2c1C(=O)N(C1CC1)C(C)(C(=O)NCc1ccccc1Cl)C2 (stereo unspecified) |
| 762 s | Cc1ccc(NC(=O)N2CCC(n3c(-c4ccoc4)nc4cccnc43)C2)cc1C (stereo unspecified) |
| 629 s | COC(=O)c1ccccc1NC(=O)NCCc1c(C)nn(C)c1C |
| 1020 s | Cc1ccc(C)c(N2CCN(C(=O)c3c(C)oc4nc(C)nc(N5CCOCC5)c34)CC2)c1 |
| 1250 s | Cc1cc(F)ccc1NC(=O)c1c(O)c2cccnc2n(-c2cccc(F)c2)c1=O |
| 806 s | COCCn1cc(CCNC(=O)Nc2ccc(Cl)cc2F)c2cccnc21 |
| 644 s | CCn1c(=O)c2ccn(CC(=O)Nc3cc(C)ccn3)c2n(CC)c1=O |
| 694 s | COc1cc(=O)c(C(=O)NC(C)C)nn1-c1ccc(C)cc1 |
| 670 s | Cc1noc2nc(CCC(=O)NCCCN3CCc4ccccc4C3)nc(N3CCCCC3)c12 |
| 661 s | COc1ccc(-c2cc3nn(CC(=O)Nc4ccccc4)c(=O)n3c(C)n2)cc1 |
| 808 s | CCc1ccc(Nc2nc(C(=O)NCc3ccco3)nc3ccccc23)cc1 |
| 708 s | Cc1ccc(NC(=O)c2[nH]c3cc(C)sc3c2CN(C)C)c(Cl)c1 |
| 1140 s | CCc1cc(C(=O)Nc2ccc(F)cc2C)nc2ccnn12 |
| 695 s | CCn1cc(CC(=O)NCc2cccc(OC)c2)c2cccnc21 |
| 1010 s | COc1ccc(-c2nn(-c3ccccc3)cc2C#N)cc1[N+](=O)[O-] |
| 698 s | COc1ccc2[nH]cc(CCNC(=O)Cn3nc(C)c4c(C)onc4c3=O)c2c1 |
| 648 s | CCc1nccn1Cc1noc(-c2ccc(C)cc2)n1 |
| 1140 s | CCc1nc2cc(-c3noc(-c4ccccc4F)n3)ccc2o1 |
| 621 s | O=C(CSc1nccn1Cc1ccc2c(c1)OCO2)Nc1ccccc1F |
| 981 s | COc1ccccc1-c1nnc(-c2cccc(S(=O)(=O)N3CCCCC3)c2)o1 |
| 802 s | CCOc1ccc(C(=O)N2CCC3(C2)C(=O)N(C)c2ccccc23)cc1 (stereo unspecified) |
| 876 s | Cc1cccc(CNC(=O)C2(C)Oc3cccnc3N(C)C2=O)c1 (stereo unspecified) |
| 819 s | Cn1c(=O)c(SCC(=O)NCc2cccc(Cl)c2)nc2ccccc21 |

| RP-LC retention time | SMILES |
| --- | --- |
| 1060 s | COc1cccc(-c2noc(Cc3nnc(-c4ccc(C)c(C)c4)o3)n2)c1OC |
| 749 s | COc1ccccc1CCC(=O)NCc1cccnc1OC |
| 754 s | CC(CNC(=O)C1CCN(C(=O)c2ncn3c2COC(c2ccc(F)cc2)C3)CC1)c1ccccc1 (stereo unspecified) |
| 678 s | CCCNC(=O)Cn1ccc2ccc(-c3nnc(C)o3)cc21 |
| 763 s | N#Cc1ccc(NC(=O)Cc2csc3nc(-c4ccccc4)cn23)cc1 |
| 1250 s | CC(C)(C)c1cc(C(=O)Nc2ccccc2)nc2ccnn12 |
| 763 s | CN(Cc1ccccc1)C(=O)c1ccc(CN2CCN(C3CCCC3)C(=O)C2=O)cc1 |
| 732 s | Cc1ccsc1-c1nc(-c2ccc3ncn(C)c3c2)no1 |
| 777 s | Cc1noc(C)c1C1CCCN1C(=O)Cc1cccc(F)c1 (stereo unspecified) |
| 1200 s | COc1ccc(OC)c(-c2csc(-c3nnn(-c4ccc(Cl)cc4)c3N)n2)c1 |
| 900 s | Cc1ccc(-c2cn3ccn(-c4cccc(F)c4)c(=O)c3n2)c(C)c1 |
| 660 s | Cc1c(F)cccc1NC(=O)Nc1ccc2nncn2c1 |
| 573 s | Cn1cnnc1SCCNC(=O)C1CN(c2nc3ccccc3s2)C1 |
| 646 s | Cn1cc(-c2ccncc2)cc1C(=O)NCc1ccccc1Cl |
| 963 s | COC(=O)CNC(=O)Cc1c(C)nn(-c2nc(-c3ccc(C)cc3)cs2)c1C |
| 604 s | O=C(NCCSc1ncc(-c2ccc(F)cc2)[nH]1)c1ccccc1Cl |
| 753 s | Cc1c(Cl)cccc1NC(=O)Nc1cccc(-c2ccc(N3CCOCC3)nn2)c1 |
| 954 s | Cc1oc2c(c(C)nn2-c2ccccc2)c(=O)c1Cl |
| 1080 s | COc1ccc(-n2ncc3c(=O)n(Cc4nc(-c5ccc(C)c(C)c5)no4)cnc32)cc1 |
| 1080 s | Cc1ccsc1C(=O)Nc1ccccc1SCc1nnc(-c2ccccc2)o1 |
| 797 s | Cc1csc(-c2cc(S(=O)(=O)Nc3ccc(S(N)(=O)=O)cc3)c(C)s2)n1 |
| 998 s | Cc1cc(NC(=O)Cn2c(=O)cc(-c3nc(C4CC4)no3)c3ccccc32)ccc1F |
| 602 s | Cn1c2c(c(=O)n3ncc(C(=O)N4CCN(c5ccccn5)CC4)c13)CN(Cc1ccccc1)CC2 |
